This experiment relates to BDF1 mice, P388 leukemia ip, median survival T/C. Nature of the experiment: NCI In Vivo Anticancer Drug Screen. Data for tumor model P388 Leukemia (intraperitoneal) in B6D2F1 (BDF1) mice. The following applies: endpoint: median survival time, higher = longer survival. The method, boiled down:
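Mice carrying the transplantable tumour receive compound or vehicle. Survival is followed in each arm, and the treated measure is divided by the vehicle measure.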

Setting [1] is: dose: 12.5 mg/kg/injection, schedule: Q01DX009 (ip), vehicle: Klucel (hydroxypropylcellulose) (HPC).
[2] abbreviates: dose: 25.0 mg/kg/injection, schedule: Q01DX009 (ip), vehicle: saline.
Where [3] appears, read: dose: 50.0 mg/kg/injection, schedule: Q01DX009 (ip), vehicle: Klucel (hydroxypropylcellulose) (HPC).
Setting [4] is: dose: 50.0 mg/kg/injection, schedule: Q01DX009 (ip), vehicle: saline.
Setting [5] is: dose: 100.0 mg/kg/injection, schedule: Q01DX009 (ip), vehicle: saline.
Where [6] appears, read: dose: 50.0 mg/kg/injection, schedule: Q01DX009 (ip), vehicle: saline with Tween-80.
The mark [7] stands for this setting: dose: 100.0 mg/kg/injection, schedule: Q01DX009 (ip), vehicle: saline with Tween-80.
Setting [8] is: dose: 200.0 mg/kg/injection, schedule: Q01DX009 (ip), vehicle: saline with Tween-80.
[9] abbreviates: dose: 12.5 mg/kg/injection, schedule: Q01DX009 (ip), vehicle: saline.
[10] abbreviates: dose: 12.5 mg/kg/injection, schedule: Q01DX009 (ip), vehicle: saline with Tween-80.
Setting [11] is: dose: 25.0 mg/kg/injection, schedule: Q01DX009 (ip), vehicle: saline with Tween-80.
[12] abbreviates: dose: 50.0 mg/kg/injection, schedule: Q04DX003 (ip), vehicle: saline.
The mark [13] stands for this setting: dose: 100.0 mg/kg/injection, schedule: Q04DX003 (ip), vehicle: saline.

Values joined by “and” are separate entries in the source; they are usually repeats but may differ in a detail not shown here. Identical values can stand only once. Inconclusive results and toxic doses are left out.

Regarding `COC(=O)Nc1cccc(-c2nc3ccc(NC(=O)OC)cc3c(=O)n2-c2ccccc2)c1`, the T/C is, setting by setting: (dose: 6.25 mg/kg/injection, schedule: Q01DX009 (ip), vehicle: Klucel (hydroxypropylcellulose) (HPC)) 108 % of control; under setting [1], 117 % of control; under setting [2], 150 % of control; (dose: 25.0 mg/kg/injection, schedule: Q01DX009 (oral), vehicle: Klucel (hydroxypropylcellulose) (HPC)) 107 % of control; under setting [3], 213 % of control; under setting [4], 155 % of control. In addition, the T/C is 109 % of control (dose: 50.0 mg/kg/injection, schedule: Q01DX009 (oral), vehicle: Klucel (hydroxypropylcellulose) (HPC)); 186 % of control under setting [5]; 109 % of control (dose: 100.0 mg/kg/injection, schedule: Q01DX009 (oral), vehicle: Klucel (hydroxypropylcellulose) (HPC)); 155 % of control (dose: 800.0 mg/kg/injection, schedule: Q01DX009 (oral), vehicle: Klucel (hydroxypropylcellulose) (HPC)).

Regarding `O=C(Nc1cccc2cccnc12)C12CC3CC(CC(C3)C1)C2`, the T/C under setting [6] was 96 % of control, the T/C under setting [7] is 96 % of control and the T/C under setting [8] is 100 % of control.

As for `CC(=O)C(O)c1c(O)cc(C)[nH]c1=O` (stereo not drawn), the T/C is 100 % of control under setting [6], 97 % of control under setting [7] and 98 % of control under setting [8].

On to `Cc1ccc2c(c1)CCCN2C=O`, for which the T/C reads like this: under setting [6], 104 % of control; under setting [7], 109 % of control; under setting [8], 123 % of control.

Turning to `CCC1OCCN1C(C)C` (stereo not drawn), the T/C is 108 % of control under setting [4] and 108 % of control under setting [5].

Take `C[N+](C)=C1C=CC(=C2C=CSC=C2)C=C1`: the T/C by setting is: (dose: 1.56 mg/kg/injection, schedule: Q01DX009 (ip), vehicle: saline) 117 % of control; (dose: 3.12 mg/kg/injection, schedule: Q01DX009 (ip), vehicle: saline) 124 % of control; (dose: 6.25 mg/kg/injection, schedule: Q01DX009 (ip), vehicle: saline) 123 % of control; under setting [9], 100 % of control.

In the case of `CC(C)(C)c1ccc(OCCCOc2ccc(C(=O)O)cc2)cc1`, the T/C by setting is: (dose: 12.5 mg/kg/injection, schedule: Q04DX003 (ip), vehicle: saline sonified) 95 % of control; (dose: 25.0 mg/kg/injection, schedule: Q04DX003 (ip), vehicle: saline sonified) 95 % of control; (dose: 50.0 mg/kg/injection, schedule: Q04DX003 (ip), vehicle: saline sonified) 91 % of control.

As for `O=[N+]([O-])c1ccc(N/N=C(\c2ccccc2)c2ccsc2)c([N+](=O)[O-])c1`, the T/C (dose: 6.25 mg/kg/injection, schedule: Q01DX009 (ip), vehicle: saline with Tween-80) was 103 % of control; the T/C under setting [10] was 100 % of control; the T/C under setting [11] is 96 % of control; the T/C under setting [6] was 92 % of control.

As for `COc1ccc(/C=C/C(=O)c2ccc(OC)c(OC)c2)cc1O`, the T/C is, setting by setting: under setting [2], 108 % of control; under setting [4], 101 % of control; under setting [12], 107 % of control; under setting [5], 106 % of control; under setting [13], 110 % of control; (dose: 200.0 mg/kg/injection, schedule: Q01DX009 (ip), vehicle: saline) 90 % of control. For the same compound, the T/C is 107 % of control (dose: 200.0 mg/kg/injection, schedule: Q04DX003 (ip), vehicle: saline); 99 % of control (dose: 400.0 mg/kg/injection, schedule: Q01DX009 (ip), vehicle: saline); 124 % of control (dose: 400.0 mg/kg/injection, schedule: Q04DX003 (ip), vehicle: saline).

As for `CCC/C=C/C=C/C1CC(O)C(O)C(=O)C1C=O` (stereo not drawn), the T/C was 108 % of control under setting [10], 100 % of control under setting [11] and 101 % of control under setting [6].

In the case of `COc1cc(Nc2c3ccccc3nc3ccccc23)cc(OC)c1OC`, the T/C runs as follows: under setting [10], 97 % of control and 99 % of control; under setting [11], 112 % of control; under setting [6], 109 % of control and 115 % of control.

As for `Cc1cccc(OS(=O)(=O)c2ccccc2[N+](=O)[O-])c1`, the T/C by setting is: (dose: 100.0 mg/kg/injection, schedule: Q01DX001 (ip), vehicle: saline sonified) 100 % of control; (dose: 200.0 mg/kg/injection, schedule: Q01DX001 (ip), vehicle: saline sonified) 110 % of control; (dose: 400.0 mg/kg/injection, schedule: Q01DX001 (ip), vehicle: saline sonified) 100 % of control.

Take `O=C1NC(C2CC3C=CC2C3)Nc2ccccc21` (stereo not drawn): the T/C under setting [1] is 104 % of control; the T/C (dose: 12.5 mg/kg/injection, schedule: Q04DX003 (ip), vehicle: Klucel (hydroxypropylcellulose) (HPC)) is 100 % of control; the T/C (dose: 25.0 mg/kg/injection, schedule: Q01DX009 (ip), vehicle: Klucel (hydroxypropylcellulose) (HPC)) is 104 % of control; the T/C (dose: 25.0 mg/kg/injection, schedule: Q04DX003 (ip), vehicle: Klucel (hydroxypropylcellulose) (HPC)) is 86 % of control; the T/C under setting [3] was 95 % of control.

Consider `NC(=Nc1ccc(Cl)cc1)/N=C(/N)N1CCN(/C(N)=N/C(N)=Nc2ccc(Cl)cc2)CC1`, for which the T/C was 120 % of control under setting [9]; 116 % of control (dose: 16.5 mg/kg/injection, schedule: Q01DX009 (ip), vehicle: saline); 104 % of control (dose: 25.0 mg/kg/injection, schedule: Q01DX001 (ip), vehicle: saline); 150 % of control (dose: 37.5 mg/kg/injection, schedule: Q01DX009 (ip), vehicle: saline); 113 % of control (dose: 50.0 mg/kg/injection, schedule: Q01DX001 (ip), vehicle: saline); 100 % of control under setting [12]. In addition, the T/C is, setting by setting: (dose: 100.0 mg/kg/injection, schedule: Q01DX001 (ip), vehicle: saline) 109 % of control; under setting [13], 115 % of control; (dose: 150.0 mg/kg/injection, schedule: Q01DX001 (ip), vehicle: Klucel (hydroxypropylcellulose) (HPC)) 116 % of control.

With `Cc1ccn2c(CCc3nnc4cc(C)ccn34)nnc2c1`, the T/C by setting is: under setting [6], 90 % of control; under setting [7], 93 % of control; under setting [8], 106 % of control.

Regarding `O=C(O)C(c1ccccc1)C1CCCC1` (stereo not drawn), the T/C by setting is: under setting [6], 100 % of control; under setting [7], 95 % of control; under setting [8], 109 % of control.

With `CC(C)=CC(=O)n1nc2c(c1CC(C)C)C(=O)C(Nc1ccccc1)=CC2=O`, the T/C reads like this: (dose: 100.0 mg/kg/injection, schedule: Q04DX003 (ip), vehicle: saline with Tween-80) 93 % of control; (dose: 200.0 mg/kg/injection, schedule: Q04DX003 (ip), vehicle: saline with Tween-80) 90 % of control; (dose: 400.0 mg/kg/injection, schedule: Q04DX003 (ip), vehicle: saline with Tween-80) 100 % of control.

Regarding `CC(=O)[C@H]1CC[C@H]2[C@@H]3CC[C@@H]4C[C@@H](O)CC[C@]4(C)[C@H]3CC[C@]12C`, the T/C (dose: 163.0 mg/kg/injection, schedule: Q01DX009 (ip), vehicle: saline with Tween-80) is 109 % of control and the T/C (dose: 325.0 mg/kg/injection, schedule: Q01DX009 (ip), vehicle: saline with Tween-80) was 100 % of control.

In the case of `O=[N+]([O-])c1ccc(-c2nc(Cl)c3c(n2)CCCC3)o1`, the T/C reads like this: under setting [6], 95 % of control; under setting [7], 98 % of control; under setting [8], 97 % of control.
